Test results: ChEMBL document CHEMBL2440076, “New triarylpyrazoles as broad-spectrum anticancer agents: design, synthesis, and biological evaluation” (Eur J Med Chem, 2013)

Experiments:
[1] = system: UO-31; assay: Growth inhibition of human UO31 cells assessed as cell growth at 10 uM after 48 hrs by sulforhodamine B assay; format: functional; conditions: UO-31, 48 h, read-out: Activity
[2] = system: TK-10; assay: Growth inhibition of human TK10 cells after 48 hrs by sulforhodamine B assay; format: functional; conditions: TK-10, 48 h
[3] = Growth inhibition of human HCC2998 cells after 48 hrs by sulforhodamine B assay; format: functional; conditions: HCC 2998, 48 h
[4] = system: MDA-MB-468; assay: Growth inhibition of human MDA-MB-468 cells after 48 hrs by sulforhodamine B assay; format: functional, cell-based; conditions: MDA-MB-468, 48 h
[5] = system: HT-29; assay: Growth inhibition of human HT-29 cells after 48 hrs by sulforhodamine B assay; format: functional; conditions: HT-29, 48 h
[6] = system: SK-MEL-5; assay: Growth inhibition of human SK-MEL-5 cells assessed as cell growth at 10 uM after 48 hrs by sulforhodamine B assay; format: functional; conditions: SK-MEL-5, 48 h, read-out: Activity
[7] = system: U-251; assay: Growth inhibition of human U251 cells after 48 hrs by sulforhodamine B assay; format: functional; conditions: U-251, 48 h
[8] = system: NCI-H23; assay: Growth inhibition of human NCI-H23 cells after 48 hrs by sulforhodamine B assay; format: functional; conditions: NCI-H23, 48 h
[9] = system: SNB-75; assay: Growth inhibition of human SNB75 cells after 48 hrs by sulforhodamine B assay; format: functional; conditions: SNB-75, 48 h
[10] = system: A549; assay: Growth inhibition of human A549/ATCC cells after 48 hrs by sulforhodamine B assay; format: functional; conditions: A549, 48 h
[11] = system: SNB-19; assay: Growth inhibition of human SNB19 cells assessed as cell growth at 10 uM after 48 hrs by sulforhodamine B assay; format: functional; conditions: SNB-19, 48 h, read-out: Activity
[12] = system: DU-145; assay: Growth inhibition of human DU145 cells after 48 hrs by sulforhodamine B assay; format: functional; conditions: DU-145, 48 h
[13] = system: UACC-62; assay: Growth inhibition of human UACC62 cells assessed as cell growth at 10 uM after 48 hrs by sulforhodamine B assay; format: functional; conditions: UACC-62, 48 h, read-out: Activity
[14] = system: PC-3; assay: Growth inhibition of human PC3 cells assessed as cell growth at 10 uM after 48 hrs by sulforhodamine B assay; format: functional; conditions: PC-3, 48 h, read-out: Activity
[15] = system: HCT-116; assay: Growth inhibition of human HCT116 cells assessed as cell growth at 10 uM after 48 hrs by sulforhodamine B assay; format: functional; conditions: HCT-116, 48 h, read-out: Activity
[16] = system: RPMI-8226; assay: Growth inhibition of human RPMI8226 cells after 48 hrs by sulforhodamine B assay; format: functional, cell-based; conditions: RPMI-8226, 48 h
[17] = system: SK-OV-3; assay: Growth inhibition of human SKOV3 cells assessed as cell growth at 10 uM after 48 hrs by sulforhodamine B assay; format: functional; conditions: SK-OV-3, 48 h, read-out: Activity
[18] = system: 786-0; assay: Growth inhibition of human 786-0 cells assessed as cell growth at 10 uM after 48 hrs by sulforhodamine B assay; format: functional; conditions: 786-0, 48 h, read-out: Activity
[19] = system: SK-MEL-2; assay: Growth inhibition of human SK-MEL-2 cells assessed as cell growth at 10 uM after 48 hrs by sulforhodamine B assay; format: functional; conditions: SK-MEL-2, 48 h, read-out: Activity
[20] = Growth inhibition of human Hs 578T cells assessed as cell growth at 10 uM after 48 hrs by sulforhodamine B assay; format: functional; conditions: read-out: Activity
[21] = system: HL-60(TB); assay: Growth inhibition of human HL-60(TB) cells assessed as cell growth at 10 uM after 48 hrs by sulforhodamine B assay; format: functional; conditions: HL-60, 48 h, read-out: Activity
[22] = system: SK-MEL-5; assay: Growth inhibition of human SK-MEL-5 cells after 48 hrs by sulforhodamine B assay; format: functional; conditions: SK-MEL-5, 48 h
[23] = system: K562; assay: Growth inhibition of human K562 cells after 48 hrs by sulforhodamine B assay; format: functional; conditions: K562, 48 h
[24] = system: BT-549; assay: Growth inhibition of human BT549 cells assessed as cell growth at 10 uM after 48 hrs by sulforhodamine B assay; format: functional; conditions: BT-549, 48 h, read-out: Activity
[25] = system: OVCAR-3; assay: Growth inhibition of human OVCAR3 cells assessed as cell growth at 10 uM after 48 hrs by sulforhodamine B assay; format: functional; conditions: OVCAR-3, 48 h, read-out: Activity
[26] = system: SK-MEL-28; assay: Growth inhibition of human SK-MEL-28 cells after 48 hrs by sulforhodamine B assay; format: functional; conditions: SK-MEL-28, 48 h
[27] = system: SN12C; assay: Growth inhibition of human SN12C cells assessed as cell growth at 10 uM after 48 hrs by sulforhodamine B assay; format: functional; conditions: read-out: Activity
[28] = system: SK-OV-3; assay: Growth inhibition of human SKOV3 cells after 48 hrs by sulforhodamine B assay; format: functional; conditions: SK-OV-3, 48 h
[29] = system: RXF 393; assay: Growth inhibition of human RXF393 cells assessed as cell growth at 10 uM after 48 hrs by sulforhodamine B assay; format: functional; conditions: RXF 393, 48 h, read-out: Activity
[30] = system: A498; assay: Growth inhibition of human A498 cells assessed as cell growth at 10 uM after 48 hrs by sulforhodamine B assay; format: functional; conditions: A498, 48 h, read-out: Activity
[31] = system: T47D; assay: Growth inhibition of human T47D cells after 48 hrs by sulforhodamine B assay; format: functional
[32] = system: UACC-257; assay: Growth inhibition of human UACC257 cells assessed as cell growth at 10 uM after 48 hrs by sulforhodamine B assay; format: functional; conditions: UACC-257, 48 h, read-out: Activity
[33] = system: ACHN; assay: Growth inhibition of human ACHN cells assessed as cell growth at 10 uM after 48 hrs by sulforhodamine B assay; format: functional; conditions: read-out: Activity
[34] = system: SF-539; assay: Growth inhibition of human SF539 cells after 48 hrs by sulforhodamine B assay; format: functional; conditions: SF-539, 48 h
[35] = read-out: LC50 (the source's name)

COc1cc(-c2nn(-c3cccc(NC(=O)c4ccc(N5CCOCC5)c(C(F)(F)F)c4)c3)cc2-c2ccncc2)ccc1Cl
growth at 10 µM [1]: 24.6% | GI50 [2]: 1.49 µM | TGI [2]: 45.3 µM | CC50 [2, 35]: > 100 µM | GI50 [3]: 1.07 µM | TGI [3]: 5.02 µM | CC50 [3, 35]: > 100 µM | GI50 [4]: 0.183 µM | IC50 [4]: 0.18 µM | TGI [4]: 0.781 µM | CC50 [4, 35]: 5.53 µM | GI50 [5]: 0.38 µM | TGI [5]: 1.52 µM | CC50 [5, 35]: > 100 µM | growth at 10 µM [6]: 3.41% | GI50 [7]: 0.399 µM | LC50 (concentration killing 50% of cells) [7]: 60.7 µM | TGI [7]: 3.95 µM | GI50 [8]: 0.87 µM | LC50 [8]: > 100 µM | TGI [8]: 20.7 µM | GI50 [9]: 0.212 µM | LC50 (lethal concentration, 50% net cell kill) [9]: > 100 µM | GI50 [10]: 0.315 µM | LC50 (concentration killing 50% of starting cells) [10]: > 100 µM | TGI [10]: > 100 µM | growth at 10 µM [11]: 45.1% | GI50 [12]: 0.388 µM | LC50 [12]: > 100 µM | TGI [12]: > 100 µM | growth at 10 µM [13]: 8.35% | growth at 10 µM [14]: 8.17% | growth at 10 µM [15]: 8.35% | GI50 [16]: 0.339 µM | IC50 [16]: 0.34 µM | TGI [16]: > 100 µM | CC50 [16, 35]: > 100 µM | growth at 10 µM [17]: 1.88% | growth at 10 µM [18]: -3.26% | growth at 10 µM [19]: -8.84% | growth at 10 µM [20]: -13.6% | growth at 10 µM [21]: -8.08% | GI50 [22]: 0.112 µM | LC50 (concentration killing 50% of cells) [22]: 7.64 µM | TGI [22]: 0.675 µM | GI50 [23]: 0.0499 µM | TGI [23]: > 100 µM | CC50 [23, 35]: > 100 µM | growth at 10 µM [24]: 14.3% | growth at 10 µM [25]: -29.9% | GI50 [26]: 1.39 µM | LC50 [26]: > 100 µM | TGI [26]: > 100 µM | growth at 10 µM [27]: 31% | GI50 [28]: 0.34 µM | TGI [28]: 4.73 µM | CC50 [28, 35]: > 100 µM | growth at 10 µM [29]: -45.2% | growth at 10 µM [30]: -29.7% | GI50 [31]: 0.686 µM | TGI [31]: > 100 µM | CC50 [31, 35]: > 100 µM | growth at 10 µM [32]: 24.3% | growth at 10 µM [33]: 21.3% | GI50 [34]: 0.153 µM | TGI [34]: 0.497 µM

COc1cc(-c2nn(-c3cccc(NC(=O)c4ccc(Br)c(C)c4)c3)cc2-c2ccncc2)ccc1Cl
growth at 10 µM [1]: 53.8% | growth at 10 µM [6]: 71% | growth at 10 µM [11]: 83.6% | growth at 10 µM [13]: 79.9% | growth at 10 µM [14]: 59.4% | growth at 10 µM [15]: 70.3% | growth at 10 µM [17]: 90.8% | growth at 10 µM [18]: 85.9% | growth at 10 µM [19]: 58.2% | growth at 10 µM [20]: 74.9% | growth at 10 µM [21]: 114% | growth at 10 µM [24]: 91.4% | growth at 10 µM [25]: 90.9% | growth at 10 µM [27]: 81% | growth at 10 µM [29]: 41.7% | growth at 10 µM [30]: 68% | growth at 10 µM [32]: 79.5% | growth at 10 µM [33]: 70.2%

Cc1cc(C(=O)Nc2cccc(-n3cc(-c4ccncc4)c(-c4ccc(Cl)c(O)c4)n3)c2)ccc1Br
growth at 10 µM [1]: 74.7% | growth at 10 µM [6]: 94.4% | growth at 10 µM [11]: 115% | growth at 10 µM [13]: 105% | growth at 10 µM [14]: 86.8% | growth at 10 µM [15]: 94.4% | growth at 10 µM [17]: 100% | growth at 10 µM [18]: 106% | growth at 10 µM [19]: 106% | growth at 10 µM [20]: 108% | growth at 10 µM [21]: 172% | growth at 10 µM [24]: 103% | growth at 10 µM [25]: 104% | growth at 10 µM [27]: 101% | growth at 10 µM [29]: 91% | growth at 10 µM [30]: 102% | growth at 10 µM [32]: 95.9% | growth at 10 µM [33]: 91.8%
